Measurements from PubChem BioAssay (NCI).
Several values for one entry are separate records, joined by “and”; a condition that tells them apart may be missing. Equal entries are not always repeated.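 Interpolation was linear, between the two tested concentrations surrounding the appropriate level; five concentrations were tested over 48 hours in 96-well plates. Here, GI50 denotes the concentration required for 50% inhibition of growth. The concentration for full growth arrest is given as TGI.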

Columns and labels:
Test in all cases: NCI tumour cell line growth inhibition, 48 h; in the data active = GI50 below about 0.43 µM; inactive = the rest
[1] = tested on: OVCAR-3 ovarian
[2] = tested on: OVCAR-8 ovarian
[3] = tested on: MALME-3M melanoma
[4] = tested on: SR leukemia
[5] = tested on: NCI-H226 lung
[6] = tested on: DMS 114 small cell lung
[7] = tested on: A549 NSCLC
[8] = tested on: SK-MEL-2 melanoma
[9] = tested on: HOP-92 NSCLC
[10] = tested on: SN12C renal
[11] = tested on: EKVX NSCLC
[12] = tested on: LOX IMVI melanoma
[13] = tested on: SNB-78 CNS
[14] = tested on: U251 CNS
[15] = tested on: HCT-15 colon
[16] = tested on: OVCAR-5 ovarian
[17] = tested on: KM12 colon
[18] = tested on: RXF 393 renal
[19] = tested on: HL-60(TB) leukemia
[20] = tested on: CAKI-1 renal
[21] = tested on: ACHN renal
[22] = tested on: M14 melanoma
[23] = tested on: COLO 205 colon
[24] = tested on: LXFL 529 NSCLC
[25] = tested on: HOP-18 NSCLC
[26] = tested on: UACC-257 melanoma
[27] = tested on: DLD-1 colon
[28] = tested on: HCC-2998 colon
[29] = tested on: TK-10 renal
[30] = tested on: IGROV1 ovarian
[31] = tested on: SF-268 CNS
[32] = tested on: 786-0 renal
[33] = tested on: SNB-75 CNS
[34] = tested on: NCI-H522 lung
[35] = tested on: NCI-H460 lung
[36] = tested on: KM20L2 colon
[37] = tested on: NCI-H23 lung
[38] = tested on: UO-31 renal
[39] = tested on: SK-MEL-28 melanoma
[40] = tested on: SF-295 CNS
[41] = tested on: A498 renal
[42] = tested on: SK-OV-3 ovarian
[43] = tested on: DMS 273 small cell lung
[44] = tested on: RPMI-8226 leukemia
[45] = tested on: K-562 leukemia
[46] = tested on: UACC-62 melanoma
[47] = tested on: XF 498 CNS
[48] = tested on: SF-539 CNS
[49] = tested on: SK-MEL-5 melanoma
[50] = tested on: SNB-19 CNS
[51] = tested on: HT29 colon
[52] = tested on: M19-MEL melanoma
[53] = tested on: HCT-116 colon
[54] = tested on: SW-620 colon
[55] = tested on: CCRF-CEM leukemia
[56] = tested on: MOLT-4 leukemia
[57] = tested on: OVCAR-4 ovarian
[58] = tested on: BT-549 breast
[59] = tested on: PC-3 prostate
[60] = tested on: P388/ADR leukemia
[61] = tested on: P388 leukemia
[62] = tested on: MDA-MB-231 breast
[63] = tested on: MDA-N
[64] = tested on: T-47D breast
[65] = tested on: DU-145 prostate
[66] = tested on: MDA-MB-435
[67] = tested on: MCF7 breast
[68] = tested on: HOP-62 NSCLC
[69] = tested on: SN12K1 renal
[70] = tested on: NCI/ADR-RES ovarian

CCCc1c(C(=O)OCC)[nH]c(-c2ccc(-c3[nH]c(C(=O)OCC)c(CCC)c3C(=O)OCC)s2)c1C(=O)OCC
58 µM: TGI [33]
66.3 µM: TGI [12]
57.2 µM: TGI [8]
98.6 µM: TGI [42]
28.5 µM: TGI [18]
85.2 µM: TGI [9]
> 100 µM: TGI [1] | TGI [2] | TGI [3] | TGI [4] | TGI [5] | TGI [6] | TGI [7] | TGI [10] | TGI [11] | TGI [13] | TGI [14] | TGI [15] | TGI [16] | TGI [17] | TGI [19] | TGI [20] | TGI [21] | TGI [22] | TGI [23] | TGI [24] | TGI [25] | TGI [26] | TGI [27] | TGI [28] | TGI [29] | TGI [30] | TGI [31] | TGI [32] | TGI [34] | TGI [35] | TGI [36] | TGI [37] | TGI [38] | TGI [39] | TGI [40] | TGI [41] | TGI [43] | TGI [44] | TGI [45] | TGI [46] | TGI [47] | TGI [48] | TGI [49] | TGI [50] | TGI [51] | TGI [52] | TGI [53] | TGI [54] | TGI [55] | TGI [56] | TGI [57]

C[C@@H]1O[C@@H](O[C@H]2CC[C@]3(C=O)[C@H]4CC[C@]5(C)[C@@H](c6ccc(=O)oc6)CC[C@]5(O)[C@@H]4CC[C@]3(O)C2)[C@H](O)[C@H](O)[C@H]1O[C@@H]1O[C@H](CO)[C@@H](O)[C@H](O)[C@H]1O
0.0164 µM and 0.0174 µM: TGI [32]
0.141 µM and 0.118 µM and 0.0643 µM: TGI [50]
0.0285 µM and 0.0336 µM: TGI [59]
0.0483 µM and 0.125 µM: TGI [22]
0.0219 µM: TGI [25]
0.00837 µM and 0.0424 µM: TGI [65]
0.021 µM and 0.0245 µM: TGI [48]
0.0322 µM and 0.0251 µM and 0.0379 µM: TGI [20]
0.0195 µM and 0.0233 µM: TGI [21]
0.0344 µM and 0.062 µM: TGI [66]
0.0285 µM and 0.0701 µM: TGI [58]
0.0576 µM and 0.0437 µM and 0.0933 µM: TGI [5]
0.0595 µM and 0.0333 µM: TGI [63]
0.0358 µM and 0.0194 µM: TGI [53]
0.868 µM: TGI [4]
0.0343 µM and 0.0477 µM: TGI [3]
0.016 µM and 0.0569 µM: TGI [29]
0.0465 µM and 0.0564 µM: TGI [64]
0.0512 µM and 0.0479 µM: TGI [38]
0.0144 µM and 0.0708 µM: TGI [56]
0.129 µM: TGI [62]
active: GI50 [3] 0.0142 µM and 0.0206 µM | GI50 [5] 0.0409 µM | GI50 [6] < 0.375 pM | GI50 [58] 0.0252 µM | GI50 [59] 0.0178 µM | GI50 [20] 0.0375 µM | GI50 [22] 0.0304 µM | GI50 [29] 0.0132 µM | GI50 [63] 0.0173 µM | GI50 [37] < 0.375 pM | GI50 [38] 0.0375 µM | GI50 [64] 0.024 µM | GI50 [65] 0.0129 µM | GI50 [50] 0.0301 µM and 0.0375 µM | GI50 [66] 0.0261 µM
176 µM: TGI [61]
355 µM: TGI [60]

COc1ccc2c(c1)OCCc1cn[nH]c1-2
36 µM: TGI [19]
56.1 µM: TGI [30]
73.6 µM: TGI [47]
86.1 µM: TGI [41]
61.6 µM: TGI [9]
> 100 µM: TGI [1] | TGI [2] | TGI [3] | TGI [6] | TGI [7] | TGI [8] | TGI [10] | TGI [12] | TGI [13] | TGI [14] | TGI [67] | TGI [15] | TGI [16] | TGI [68] | TGI [17] | TGI [18] | TGI [60] | TGI [61] | TGI [23] | TGI [25] | TGI [26] | TGI [27] | TGI [28] | TGI [31] | TGI [33] | TGI [34] | TGI [35] | TGI [36] | TGI [37] | TGI [38] | TGI [39] | TGI [40] | TGI [42] | TGI [43] | TGI [45] | TGI [48] | TGI [49] | TGI [50] | TGI [51] | TGI [52] | TGI [53] | TGI [54] | TGI [55] | TGI [69] | TGI [70] | TGI [57]
12.3 µM: TGI [11]
84.3 µM: TGI [46]
70.4 µM: TGI [56]
